Measured values taken from BigSolDB 2.1.

NC(=O)[C@@H]1CCCN1
solubility (mole fraction)
Conditions | in DMF | in THF | in acetone | in acetonitrile | in cyclohexane | in ethyl acetate | in isopropanol | in n-heptane | in n-hexane | in n-propanol
278.15 K | 0.0422 | 0.0621 | 0.0644 | 0.0557 | 6e-05 | 0.0134 | 0.0532 | 0.00025 | 6e-05 | 0.0467
283.15 K | 0.0578 | 0.075 | 0.078 | 0.0634 | 9e-05 | 0.0179 | 0.0618 | 0.00036 | 9e-05 | 0.0597
288.15 K | 0.0758 | 0.0885 | 0.0956 | 0.073 | 0.00014 | 0.0242 | 0.0795 | 0.00049 | 0.00015 | 0.0753
293.15 K | 0.0976 | 0.107 | 0.113 | 0.0838 | 0.00022 | 0.0315 | 0.0995 | 0.00068 | 0.00023 | 0.0933
298.15 K | 0.123 | 0.129 | 0.133 | 0.0951 | 0.00032 | 0.042 | 0.125 | 0.00096 | 0.00032 | 0.111
303.15 K | 0.156 | 0.156 | 0.154 | 0.106 | 0.00051 | 0.0549 | 0.153 | 0.00131 | 0.00051 | 0.13
308.15 K | 0.194 | 0.189 | 0.177 | 0.116 | 0.00079 | 0.0711 | 0.19 | 0.0018 | 0.00077 | 0.16
313.15 K | 0.238 | 0.228 | 0.2 | 0.127 | 0.00124 | 0.0927 | 0.23 | 0.00239 | 0.00112 | 0.204
318.15 K | 0.288 | 0.287 | 0.225 | 0.138 | 0.0017 | 0.121 | 0.28 | 0.00304 | 0.00159 | 0.259
323.15 K | 0.347 | 0.362 | 0.252 | 0.148 | 0.00231 | 0.154 | 0.355 | 0.00401 | 0.00212 | 0.328
